Assay results from patent publication US20150196533A1, “METHOD FOR CONCURRENT TREATMENT OF PAIN AND DEPRESSION” (The General Hospital Corporation, priority 2012, published 2015).
“Also recorded” adds a separate entry of the source.

Key:
Type in all cases: in vivo, rat
IL-6 = test: Plasma IL-6 level (ELISA) in rats with nociceptive and depressive behavior; conditions: systemic treatment; rats with both nociceptive and depressive behavior; data not shown
Description: Under pentobarbital anesthesia, whole blood was collected from the left ventricle of the heart and placed in a serum collection tube (BD Vacutainer). Blood clots were formed after 30-60 min at room temperature and the tube was centrifuged for 10 min at 12,000 rpm. ELISA Quantikine kit (R&D Systems) and IDO ELISA kit (TSZ ELISA) was used according to the manufacturer's instructions. Optical density of samples was read at wavelengths of 450 & 570 nm using a microplate reader (Synergy HT, Bio-TEK®). A standard curve, provided by the manufacturer, was generated for each set of samples assayed and the concentration of each sample was obtained according to the standard curve.

[1] = tested on: Wistar rats with CFA-induced arthritis; test: Depressive behavior (forced swim test) in rats with CFA-induced hindpaw monoarthritis; conditions: for depressive behavior (immobility time in FST; FIG. 6H): 100 mg/kg intraperitoneally once on day 14, same arthritic rats, P>0.05
[2] = tested on: Wistar rats with CFA-induced arthritis; test: Nociceptive tests (von Frey, Hargreaves) in rats with CFA-induced hindpaw monoarthritis; conditions: for nociceptive behavior (mechanical allodynia, ipsilateral hindpaw; FIG. 5A): intraperitoneal, 10 mg/day, twice daily for 14 consecutive days after CFA
Description: Hindpaw monoarthritis was induced by the injection of CFA (50 μl) into a unilateral tibio-tarsal joint cavity under brief isoflurane anesthesis (Butler, S. H., et al, and Weil-Fugazza, J. 1992. A limited arthritic model for chronic pain studies in the rat. Pain 48:73-81). Animals in sham groups received the injection of 50 μl Incomplete Freund's Adjuvant.
(§1) Under brief isoflurane anesthesia, a guide cannula (26 gauge, Plasticsone) was implanted just above the hippocampus (AP: −3.6 mm; left: +2.0 mm from Bregma; depth: −4.0 mm from skin) (Paxinos, G., and Watson, C. 1998. The rat brain in stertaxic coordinates. New York: Academic Press). An injection needle (33 gauge, Plasticsone) was inserted through the guide cannula and drug solution or vehicle (0.5 μl) was slowly injected over 5 min using a Hamilton syringe. Locations of the cannula placement were confirmed at the time of tissue harvest (data not shown).
(§2) Animals were habituated to a test setting (30-min session) for three consecutive days. Thermal withdrawal threshold was assessed using the Hargreaves' apparatus and method (Hargreaves, K., et al., 1988. A new and sensitive method for measuring thermal nociception in cutaneous hyperalgesia. Pain 32:77-88). Mechanical withdrawal threshold was assessed using von Frey filaments (Tal, M., and Bennett, G. J. 1994. Extra-territorial pain in rats with a peripheral mononeuropathy: mechano-hyperalgesia and mechano-allodynia in the territory of an uninjured nerve. Pain 57:375-382).

IDO1/TPH2 = IDO1/TPH2 expression in the hippocampus of CFA rats (Example 11); conditions: intraperitoneally once per day, day 1 to day 14 (1-MT 10 mg, fluoxetine 5 mg); tissue taken 7 days after discontinuation
Description: Rats were divided into five groups: 1) sham-operated rats treated with a vehicle (Sham), 2) CFA-induced hindpaw pain treated with vehicle (C-V). […] Each treatment was given intraperitoneally once per day from day 1 to day 14. Hippocampal tissue samples were taken after the last behavioral tests at 7 days after discontinuation of the corresponding drug treatment.

IDO1 [3] = test: Hippocampal IDO1 expression (Western blot, real-time PCR) in rats with CFA-induced arthritis; conditions: 100 mg/kg intraperitoneally once on day 14, same arthritic rats, P>0.05
Description: Rats were sacrificed under pentobarbital anesthesia.
Total RNA was isolated from hippocampal samples using TRIzol reagent (Invitrogen). Four μg of total RNA was used to synthesize the first strand cDNA using SuperScript III kit (Invitrogen). Four μl of cDNA was put into 20 μl vessel with 1 μl of 20× TaqMan Gene Expression Assay. Taqman Gene Expression Assays (Applied Biosystems) containing primers and a Taqman probe were used to quantify each gene of interest. […] The reaction was performed in duplicate with the following conditions: denaturing at 95° C. for 30 s, annealing at 60° C. for 2 min, extension at 68° C. for 2 min for 40 cycles using a 7300 Real-Time PCR System (Applied Biosystems). The RNA expression of GAPDH was measured as control.

naive rats = test: Intra-hippocampal microinjection in naive rats: nociceptive and depressive behavior
Description: as §1, §2
FST was performed according to the original method by Porsolt et al (Porsolt, R. D., Le, P. M., and Jalfre, M. 1977. Depression: a new animal model sensitive to antidepressant treatments. Nature 266:730-732). The total duration of immobility (non-swimming) within a 5-min session was recorded as immobility scores (in seconds) and compared among groups.

IDO1 [4] = test: Intra-hippocampal microinjection in naive rats: hippocampal IDO1 mRNA (real-time PCR); conditions: intra-hippocampal microinjection alone, naive rats; P>0.05
Description: as §1
Total RNA was isolated from hippocampal samples using TRIzol reagent (Invitrogen). Four μg of total RNA was used to synthesize the first strand cDNA using SuperScript III kit (Invitrogen). Four μl of cDNA was put into 20 μl vessel with 1 μl of 20× TaqMan Gene Expression Assay. Taqman Gene Expression Assays (Applied Biosystems) containing primers and a Taqman probe were used to quantify each gene of interest. The genes examined were IL-6 (Rn01410330 m1, M26744.1) and IDO1 (Rn00576778 m1, AF312699.1) for rats and IL-6 (Mm00446190 m1, X54542.1) and IDO1 (Mm00492586 m1, M69109.1) for mice. […] The RNA expression of GAPDH was measured as control.

[5] = 100 mg/kg intraperitoneally once on day 14, examined 1 hr after, arthritic rats, P<0.05 vs vehicle

SMILES: Cn1cc(C[C@H](N)C(=O)O)c2ccccc21 [1-MT, L-1-methyl-tryptophan]
- elevation of the plasma IL-6 level (IL-6): did not prevent elevation of the plasma IL-6 level
- depressive behavior (immobility time in forced swimming test; FIG. 5D) ([1]; intra-hippocampal microinjection, 5 μg in 0.5 μl, once daily x 7 d, P<0.05): attenuated; also recorded: reduced the immobility time in forced swimming test
- depressive behavior (immobility time in forced swimming test; FIG. 5B) ([1]; intraperitoneal, 10 mg/day, twice daily for 14 consecutive days after CFA, arthritic rats, P<0.05 vs vehicle): significantly attenuated; also recorded: improved the immobility time in forced swimming test
- nociceptive behavior (thermal hyperalgesia, ipsilateral hindpaw; FIG. 5C) ([2]; intra-hippocampal microinjection, 5 μg in 0.5 μl, once daily x 7 d, contralateral to arthritic hindpaw, P<0.05): attenuated thermal hyperalgesia
- behaviors in sham control rats ([2]; intra-hippocampal microinjection): without changing behaviors in sham control rats
- nociceptive behavior (mechanical allodynia, ipsilateral hindpaw; FIG. 5A) ([2]; arthritic rats, P<0.05 vs vehicle): significantly attenuated
- nociceptive behavior (mechanical allodynia, ipsilateral hindpaw; FIG. 5A) ([2]; arthritic rats, P<0.05 vs vehicle, listed as L-1-MT): attenuated mechanical allodynia
- behaviors in sham control rats ([2]; systemic (intraperitoneal) treatment alone): did not alter behaviors in sham controls rats
- IDO up-regulation in the hippocampus (IDO1/TPH2): prevented the IDO up-regulation

SMILES: CC(=O)Nc1ccc(O)cc1 [acetaminophen, N-acetyl-para-aminophen]
- depressive behavior (immobility time in FST; FIG. 6H) [1]: did not acutely reverse depressive behavior
- depressive behavior (immobility time in FST; FIG. 6H) ([1]; listed as APAP): did not change the immobility time in FST
- mechanical allodynia (ipsilateral; FIG. 6F) [2, 5]: significantly reduced; also recorded: attenuated
- thermal hyperalgesia (FIG. 6G) [2, 5]: significantly reduced; also recorded: attenuated
- hippocampal IDO1 mRNA level (FIG. 6I) (IDO1 [3]): nor did it alter the IDO1 mRNA level
- hippocampal IDO1 mRNA level (FIG. 6I) (IDO1 [3]; listed as APAP): not reversed

SMILES: N#C/C(=C/c1ccc(O)c(O)c1)C(=O)NCc1ccccc1 [AG490]
- IL-6 effects (mechanical allodynia, thermal hyperalgesia, depressive behavior, hippocampal IDO1 mRNA; FIG. 9E-H) (naive rats; 5 μg once daily x 7 d co-administered with IL-6 into the hippocampus of naive rats, each P<0.05): prevented; also recorded: blocked
- baseline behavioral response (naive rats; intra-hippocampal microinjection alone, naive rats, P>0.05): had no effect
- IDO1 mRNA expression (IDO1 [4]): had no effect

SMILES: CNCCC(Oc1ccc(C(F)(F)F)cc1)c1ccccc1 (stereo not shown) [SSRI, fluoxetine]
- IDO1/TPH2 ratio in the hippocampus (IDO1/TPH2): did not alter the IDO1/TPH2 ratio
